ChEMBL document CHEMBL1147701, “Novel 4-anilinoquinazolines with C-6 carbon-linked side chains: synthesis and structure-activity relationship of a series of potent, orally active, EGF receptor tyrosine kinase inhibitors” (Bioorg Med Chem Lett, 2006)

Target: Glycogen synthase kinase-3 beta (Homo sapiens, UniProt P49841)
Assay: Inhibition of GSK3-beta

Glycogen synthase kinase-3 beta, sequence (P49841 whole entry): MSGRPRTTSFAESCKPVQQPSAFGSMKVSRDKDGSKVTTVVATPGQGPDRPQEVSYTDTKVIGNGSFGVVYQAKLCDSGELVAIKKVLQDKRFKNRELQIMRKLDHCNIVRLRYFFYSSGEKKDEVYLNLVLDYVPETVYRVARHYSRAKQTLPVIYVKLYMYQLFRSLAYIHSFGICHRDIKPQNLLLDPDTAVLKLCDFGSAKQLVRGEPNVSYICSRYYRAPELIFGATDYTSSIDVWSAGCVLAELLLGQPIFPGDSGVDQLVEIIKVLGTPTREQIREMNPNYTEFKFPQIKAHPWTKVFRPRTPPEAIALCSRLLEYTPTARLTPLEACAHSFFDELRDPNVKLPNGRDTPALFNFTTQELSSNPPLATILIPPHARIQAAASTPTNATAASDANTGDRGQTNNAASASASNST

IC50, > 10 µM:
COc1cc2ncnc(Nc3cccc(Cl)c3F)c2cc1CN(CCN(C)C)[C@@H](C)C(N)=O
COc1cc2ncnc(Nc3cccc(Cl)c3F)c2cc1CN(C)C1CCNC1=O (stereo not drawn)
COC[C@@H](C(N)=O)N(C)Cc1cc2c(Nc3cccc(Cl)c3F)ncnc2cc1OC
COc1cc2ncnc(Nc3cccc(Cl)c3F)c2cc1CN(C)[C@H](C)C(=O)N(C)C
COc1cc2ncnc(Nc3cccc(Cl)c3F)c2cc1CN1CC[C@H](C(N)=O)C1

Target: c-Jun N-terminal kinase, JNK (Homo sapiens, UniProt P45983+P53779+P45984)
Assay: Inhibition of JNK
Format: protein assay

IC50, > 10 µM:
COc1cc2ncnc(Nc3cccc(Cl)c3F)c2cc1CN(CCN(C)C)[C@@H](C)C(N)=O
COc1cc2ncnc(Nc3cccc(Cl)c3F)c2cc1CN(C)C1CCNC1=O (stereo not drawn)
COC[C@@H](C(N)=O)N(C)Cc1cc2c(Nc3cccc(Cl)c3F)ncnc2cc1OC
COc1cc2ncnc(Nc3cccc(Cl)c3F)c2cc1CN(C)[C@H](C)C(=O)N(C)C
COc1cc2ncnc(Nc3cccc(Cl)c3F)c2cc1CN1CC[C@H](C(N)=O)C1

Target: MAP kinase p38 (Homo sapiens, UniProt O15264+Q15759+Q16539+P53778)

IC50, > 10 µM:
COc1cc2ncnc(Nc3cccc(Cl)c3F)c2cc1CN(C)C1CCNC1=O (stereo not drawn)
COC[C@@H](C(N)=O)N(C)Cc1cc2c(Nc3cccc(Cl)c3F)ncnc2cc1OC

Target: cAMP-dependent protein kinase (PKA) (Homo sapiens, UniProt P22694+P17612+P22612)
Assay: Inhibition of PKA
Format: protein assay

IC50, > 10 µM:
COc1cc2ncnc(Nc3cccc(Cl)c3F)c2cc1CN(CCN(C)C)[C@@H](C)C(N)=O
COc1cc2ncnc(Nc3cccc(Cl)c3F)c2cc1CN(C)C1CCNC1=O (stereo not drawn)
COC[C@@H](C(N)=O)N(C)Cc1cc2c(Nc3cccc(Cl)c3F)ncnc2cc1OC
COc1cc2ncnc(Nc3cccc(Cl)c3F)c2cc1CN(C)[C@H](C)C(=O)N(C)C

Target: T1, Serine/threonine-protein kinase Sgk1 (Homo sapiens, UniProt O00141)
T1 sequence (O00141 whole entry): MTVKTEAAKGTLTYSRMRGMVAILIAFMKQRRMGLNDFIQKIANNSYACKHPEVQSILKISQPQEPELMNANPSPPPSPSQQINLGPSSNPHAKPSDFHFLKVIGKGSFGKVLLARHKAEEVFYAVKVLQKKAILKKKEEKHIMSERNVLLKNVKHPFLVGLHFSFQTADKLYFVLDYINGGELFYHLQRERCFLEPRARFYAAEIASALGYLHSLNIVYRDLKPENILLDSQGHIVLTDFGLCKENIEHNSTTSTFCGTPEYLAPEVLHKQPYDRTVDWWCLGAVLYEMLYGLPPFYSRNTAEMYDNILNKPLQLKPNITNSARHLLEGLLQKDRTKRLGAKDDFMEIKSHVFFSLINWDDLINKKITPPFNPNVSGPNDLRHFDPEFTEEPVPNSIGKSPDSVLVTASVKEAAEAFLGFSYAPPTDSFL
Assay: Inhibition of SGK

IC50, > 10 µM:
COc1cc2ncnc(Nc3cccc(Cl)c3F)c2cc1CN(CCN(C)C)[C@@H](C)C(N)=O
COc1cc2ncnc(Nc3cccc(Cl)c3F)c2cc1CN(C)C1CCNC1=O (stereo not drawn)
COC[C@@H](C(N)=O)N(C)Cc1cc2c(Nc3cccc(Cl)c3F)ncnc2cc1OC
COc1cc2ncnc(Nc3cccc(Cl)c3F)c2cc1CN(C)[C@H](C)C(=O)N(C)C
COc1cc2ncnc(Nc3cccc(Cl)c3F)c2cc1CN1CC[C@H](C(N)=O)C1

Target: Vascular endothelial growth factor receptor 2 (Homo sapiens, UniProt P35968)
Sequence (P35968 whole entry): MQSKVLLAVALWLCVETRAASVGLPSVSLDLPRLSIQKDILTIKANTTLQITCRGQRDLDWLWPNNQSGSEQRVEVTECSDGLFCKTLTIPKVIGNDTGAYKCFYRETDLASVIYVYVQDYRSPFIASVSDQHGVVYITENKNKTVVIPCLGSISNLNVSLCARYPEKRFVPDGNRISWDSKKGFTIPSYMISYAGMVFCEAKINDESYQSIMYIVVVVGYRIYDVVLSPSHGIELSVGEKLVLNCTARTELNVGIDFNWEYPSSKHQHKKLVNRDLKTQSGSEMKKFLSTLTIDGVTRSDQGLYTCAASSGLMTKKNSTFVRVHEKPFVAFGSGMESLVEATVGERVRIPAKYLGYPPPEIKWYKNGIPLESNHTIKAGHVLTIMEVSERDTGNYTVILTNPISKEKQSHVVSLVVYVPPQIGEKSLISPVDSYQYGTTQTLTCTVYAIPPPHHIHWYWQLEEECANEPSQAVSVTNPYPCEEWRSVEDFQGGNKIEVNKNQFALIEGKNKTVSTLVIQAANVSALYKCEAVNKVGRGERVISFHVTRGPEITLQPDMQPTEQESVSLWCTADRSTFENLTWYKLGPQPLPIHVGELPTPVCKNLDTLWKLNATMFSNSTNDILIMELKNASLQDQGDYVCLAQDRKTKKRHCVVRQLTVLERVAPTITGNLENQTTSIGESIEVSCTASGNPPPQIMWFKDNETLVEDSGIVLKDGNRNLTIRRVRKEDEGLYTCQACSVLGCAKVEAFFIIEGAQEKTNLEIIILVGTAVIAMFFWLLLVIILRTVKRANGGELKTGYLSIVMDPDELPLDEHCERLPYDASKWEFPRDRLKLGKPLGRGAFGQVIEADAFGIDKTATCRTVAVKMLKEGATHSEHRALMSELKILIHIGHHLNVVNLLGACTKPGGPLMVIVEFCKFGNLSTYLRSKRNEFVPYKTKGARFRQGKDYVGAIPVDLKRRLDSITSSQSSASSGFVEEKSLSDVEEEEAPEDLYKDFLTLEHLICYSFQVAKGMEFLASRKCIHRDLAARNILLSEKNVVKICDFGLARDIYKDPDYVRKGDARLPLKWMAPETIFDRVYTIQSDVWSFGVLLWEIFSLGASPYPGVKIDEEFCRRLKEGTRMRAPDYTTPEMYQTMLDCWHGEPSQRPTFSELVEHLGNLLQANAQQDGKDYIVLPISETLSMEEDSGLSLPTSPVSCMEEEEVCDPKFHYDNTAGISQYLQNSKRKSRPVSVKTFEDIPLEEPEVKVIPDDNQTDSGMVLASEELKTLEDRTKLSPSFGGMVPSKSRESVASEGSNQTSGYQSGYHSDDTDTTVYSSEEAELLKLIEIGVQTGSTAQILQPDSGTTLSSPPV

IC50, > 10 µM:
COc1cc2ncnc(Nc3cccc(Cl)c3F)c2cc1CN(CCN(C)C)[C@@H](C)C(N)=O
COc1cc2ncnc(Nc3cccc(Cl)c3F)c2cc1CN(C)C1CCNC1=O (stereo not drawn)
COC[C@@H](C(N)=O)N(C)Cc1cc2c(Nc3cccc(Cl)c3F)ncnc2cc1OC
COc1cc2ncnc(Nc3cccc(Cl)c3F)c2cc1CN(C)[C@H](C)C(=O)N(C)C
COc1cc2ncnc(Nc3cccc(Cl)c3F)c2cc1CN1CC[C@H](C(N)=O)C1

Target: Tyrosine-protein kinase Lck (Homo sapiens, UniProt P06239)
Sequence (P06239 whole entry): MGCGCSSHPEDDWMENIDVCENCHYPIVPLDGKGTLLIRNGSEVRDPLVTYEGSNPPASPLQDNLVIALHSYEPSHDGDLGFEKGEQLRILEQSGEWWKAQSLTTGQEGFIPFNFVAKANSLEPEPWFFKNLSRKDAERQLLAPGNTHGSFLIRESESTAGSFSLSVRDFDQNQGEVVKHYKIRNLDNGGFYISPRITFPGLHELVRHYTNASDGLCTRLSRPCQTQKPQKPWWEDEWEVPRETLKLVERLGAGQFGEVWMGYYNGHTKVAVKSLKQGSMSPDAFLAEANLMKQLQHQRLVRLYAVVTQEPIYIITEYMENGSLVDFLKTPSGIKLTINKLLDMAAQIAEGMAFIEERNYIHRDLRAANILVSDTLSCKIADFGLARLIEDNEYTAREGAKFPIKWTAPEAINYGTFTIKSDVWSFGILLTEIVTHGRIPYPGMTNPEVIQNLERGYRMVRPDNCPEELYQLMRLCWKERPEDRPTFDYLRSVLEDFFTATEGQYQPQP

IC50, > 10 µM:
COc1cc2ncnc(Nc3cccc(Cl)c3F)c2cc1CN(CCN(C)C)[C@@H](C)C(N)=O
COc1cc2ncnc(Nc3cccc(Cl)c3F)c2cc1CN1CC[C@H](C(N)=O)C1

Target: Mitogen-activated protein kinase 1 (Homo sapiens, UniProt P28482)
Assay: Inhibition of MAPK

Mitogen-activated protein kinase 1, sequence (P28482 whole entry): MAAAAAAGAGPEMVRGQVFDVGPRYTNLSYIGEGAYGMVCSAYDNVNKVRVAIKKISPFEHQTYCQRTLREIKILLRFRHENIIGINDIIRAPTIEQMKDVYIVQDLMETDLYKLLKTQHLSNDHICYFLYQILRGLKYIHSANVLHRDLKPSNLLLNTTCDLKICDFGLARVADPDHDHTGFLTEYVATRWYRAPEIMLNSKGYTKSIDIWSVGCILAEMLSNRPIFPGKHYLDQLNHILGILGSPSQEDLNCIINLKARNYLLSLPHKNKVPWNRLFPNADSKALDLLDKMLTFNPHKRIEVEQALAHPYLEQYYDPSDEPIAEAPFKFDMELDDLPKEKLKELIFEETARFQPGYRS

IC50, > 10 µM:
COc1cc2ncnc(Nc3cccc(Cl)c3F)c2cc1CN(CCN(C)C)[C@@H](C)C(N)=O
COc1cc2ncnc(Nc3cccc(Cl)c3F)c2cc1CN(C)C1CCNC1=O (stereo not drawn)
COC[C@@H](C(N)=O)N(C)Cc1cc2c(Nc3cccc(Cl)c3F)ncnc2cc1OC
COc1cc2ncnc(Nc3cccc(Cl)c3F)c2cc1CN(C)[C@H](C)C(=O)N(C)C
COc1cc2ncnc(Nc3cccc(Cl)c3F)c2cc1CN1CC[C@H](C(N)=O)C1

Target: Rho-associated protein kinase 2 (Homo sapiens, UniProt O75116)
Assay: Inhibition of ROCK2

Rho-associated protein kinase 2, sequence (O75116 whole entry): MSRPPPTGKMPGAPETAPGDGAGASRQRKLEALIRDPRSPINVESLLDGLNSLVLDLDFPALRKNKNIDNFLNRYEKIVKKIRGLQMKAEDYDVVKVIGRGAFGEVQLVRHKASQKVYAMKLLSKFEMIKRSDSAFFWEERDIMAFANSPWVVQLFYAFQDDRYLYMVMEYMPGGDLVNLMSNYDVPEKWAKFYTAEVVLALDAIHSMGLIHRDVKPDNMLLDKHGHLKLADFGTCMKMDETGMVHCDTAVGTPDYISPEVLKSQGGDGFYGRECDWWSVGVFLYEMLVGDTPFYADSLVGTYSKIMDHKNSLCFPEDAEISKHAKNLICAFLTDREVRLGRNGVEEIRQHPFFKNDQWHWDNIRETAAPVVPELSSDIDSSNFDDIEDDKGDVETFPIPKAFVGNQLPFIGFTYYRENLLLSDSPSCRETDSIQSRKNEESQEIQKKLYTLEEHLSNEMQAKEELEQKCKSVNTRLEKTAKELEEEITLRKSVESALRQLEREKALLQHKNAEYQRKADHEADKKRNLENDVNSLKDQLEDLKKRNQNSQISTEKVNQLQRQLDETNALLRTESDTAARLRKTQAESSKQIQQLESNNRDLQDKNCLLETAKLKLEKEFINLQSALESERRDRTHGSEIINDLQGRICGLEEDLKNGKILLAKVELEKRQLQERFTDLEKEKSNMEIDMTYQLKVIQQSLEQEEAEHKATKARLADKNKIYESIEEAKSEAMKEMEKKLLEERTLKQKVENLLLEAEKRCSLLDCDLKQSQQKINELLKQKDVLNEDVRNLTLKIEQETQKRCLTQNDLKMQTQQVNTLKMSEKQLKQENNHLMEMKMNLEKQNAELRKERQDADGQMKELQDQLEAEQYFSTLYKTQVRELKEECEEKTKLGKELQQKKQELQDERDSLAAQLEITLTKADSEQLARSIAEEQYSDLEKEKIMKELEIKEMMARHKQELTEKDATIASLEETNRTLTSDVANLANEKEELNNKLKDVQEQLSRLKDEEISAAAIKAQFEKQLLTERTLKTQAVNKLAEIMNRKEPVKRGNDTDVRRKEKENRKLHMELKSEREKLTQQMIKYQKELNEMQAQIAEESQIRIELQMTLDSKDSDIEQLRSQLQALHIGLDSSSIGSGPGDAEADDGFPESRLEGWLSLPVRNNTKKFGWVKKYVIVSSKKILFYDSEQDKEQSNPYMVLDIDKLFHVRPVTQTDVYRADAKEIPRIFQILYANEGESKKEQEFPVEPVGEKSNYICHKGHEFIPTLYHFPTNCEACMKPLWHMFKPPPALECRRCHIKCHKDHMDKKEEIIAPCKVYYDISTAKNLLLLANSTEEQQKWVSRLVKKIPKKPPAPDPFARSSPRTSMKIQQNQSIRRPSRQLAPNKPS

IC50, > 10 µM:
COc1cc2ncnc(Nc3cccc(Cl)c3F)c2cc1CN(CCN(C)C)[C@@H](C)C(N)=O
COc1cc2ncnc(Nc3cccc(Cl)c3F)c2cc1CN(C)C1CCNC1=O (stereo not drawn)
COC[C@@H](C(N)=O)N(C)Cc1cc2c(Nc3cccc(Cl)c3F)ncnc2cc1OC
COc1cc2ncnc(Nc3cccc(Cl)c3F)c2cc1CN(C)[C@H](C)C(=O)N(C)C
COc1cc2ncnc(Nc3cccc(Cl)c3F)c2cc1CN1CC[C@H](C(N)=O)C1

Target: AMP-activated protein kinase, AMPK
Assay: Inhibition of AMPK
Format: protein-complex assay

IC50, > 10 µM:
COc1cc2ncnc(Nc3cccc(Cl)c3F)c2cc1CN(CCN(C)C)[C@@H](C)C(N)=O
COc1cc2ncnc(Nc3cccc(Cl)c3F)c2cc1CN(C)C1CCNC1=O (stereo not drawn)
COC[C@@H](C(N)=O)N(C)Cc1cc2c(Nc3cccc(Cl)c3F)ncnc2cc1OC
COc1cc2ncnc(Nc3cccc(Cl)c3F)c2cc1CN(C)[C@H](C)C(=O)N(C)C
COc1cc2ncnc(Nc3cccc(Cl)c3F)c2cc1CN1CC[C@H](C(N)=O)C1

Target: Proto-oncogene tyrosine-protein kinase Src (Homo sapiens, UniProt P12931)
Assay: Inhibition of Src

Proto-oncogene tyrosine-protein kinase Src, sequence (P12931 2-536 limits assumed): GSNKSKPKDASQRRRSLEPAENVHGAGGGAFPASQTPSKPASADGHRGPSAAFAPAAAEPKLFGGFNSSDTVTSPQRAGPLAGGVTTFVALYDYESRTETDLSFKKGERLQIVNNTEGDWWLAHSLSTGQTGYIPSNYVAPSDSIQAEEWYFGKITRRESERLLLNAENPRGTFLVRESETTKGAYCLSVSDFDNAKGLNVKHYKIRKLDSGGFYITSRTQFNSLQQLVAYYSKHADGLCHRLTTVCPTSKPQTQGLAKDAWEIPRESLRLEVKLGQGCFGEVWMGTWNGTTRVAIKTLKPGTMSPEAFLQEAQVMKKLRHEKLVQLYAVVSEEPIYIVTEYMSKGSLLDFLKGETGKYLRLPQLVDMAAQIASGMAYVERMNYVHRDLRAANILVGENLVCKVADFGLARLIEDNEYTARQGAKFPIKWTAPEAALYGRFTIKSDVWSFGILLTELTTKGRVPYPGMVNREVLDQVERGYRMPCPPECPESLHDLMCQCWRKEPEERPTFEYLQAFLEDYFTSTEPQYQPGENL

IC50, > 10 µM:
COc1cc2ncnc(Nc3cccc(Cl)c3F)c2cc1CN(CCN(C)C)[C@@H](C)C(N)=O
COc1cc2ncnc(Nc3cccc(Cl)c3F)c2cc1CN(C)C1CCNC1=O (stereo not drawn)
COC[C@@H](C(N)=O)N(C)Cc1cc2c(Nc3cccc(Cl)c3F)ncnc2cc1OC
COc1cc2ncnc(Nc3cccc(Cl)c3F)c2cc1CN(C)[C@H](C)C(=O)N(C)C
COc1cc2ncnc(Nc3cccc(Cl)c3F)c2cc1CN1CC[C@H](C(N)=O)C1

Target: T2, Serine/threonine-protein kinase Chk1 (Homo sapiens, UniProt O14757)
T2 sequence (O14757 whole entry): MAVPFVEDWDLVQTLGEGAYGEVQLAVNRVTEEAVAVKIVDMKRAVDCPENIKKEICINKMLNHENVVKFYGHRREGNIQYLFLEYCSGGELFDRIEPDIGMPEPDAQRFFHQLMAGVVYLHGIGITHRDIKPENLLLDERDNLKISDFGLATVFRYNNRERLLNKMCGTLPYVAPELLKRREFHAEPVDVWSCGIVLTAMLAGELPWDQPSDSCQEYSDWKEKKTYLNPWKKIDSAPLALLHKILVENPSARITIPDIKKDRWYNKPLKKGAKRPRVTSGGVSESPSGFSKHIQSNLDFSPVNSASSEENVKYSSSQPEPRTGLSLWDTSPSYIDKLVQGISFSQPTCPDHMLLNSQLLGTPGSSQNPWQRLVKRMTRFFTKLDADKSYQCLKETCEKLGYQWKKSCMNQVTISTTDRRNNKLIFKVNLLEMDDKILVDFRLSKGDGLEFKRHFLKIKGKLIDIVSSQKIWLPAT
Assay: Inhibition of CHK1

IC50, > 10 µM:
COc1cc2ncnc(Nc3cccc(Cl)c3F)c2cc1CN(CCN(C)C)[C@@H](C)C(N)=O
COc1cc2ncnc(Nc3cccc(Cl)c3F)c2cc1CN(C)C1CCNC1=O (stereo not drawn)
COC[C@@H](C(N)=O)N(C)Cc1cc2c(Nc3cccc(Cl)c3F)ncnc2cc1OC
COc1cc2ncnc(Nc3cccc(Cl)c3F)c2cc1CN(C)[C@H](C)C(=O)N(C)C
COc1cc2ncnc(Nc3cccc(Cl)c3F)c2cc1CN1CC[C@H](C(N)=O)C1
